Holding throughout (settings): FGFR binding data
One test addresses T1, FGFR3 (Homo sapiens, UniProt P22607).
T1 construct: made in house; host or cells: E. coli derived from BL21, infected with T7 phage
Put plainly: Kinase binding assay (kinase-tagged T7 phage, affinity beads, qPCR readout), FGFR3. The procedure, abridged:
(§1)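 First, streptavidin beads were loaded with biotinylated ligand and blocked. Kinase, beads and compound were then shaken together for 1 hour at room temperature in SeaBlock/PBS/Tween/DTT buffer. Finally, eluted kinase was measured by qPCR and Kd fitted with Hill slope −1.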
In general terms: In qPCR the cycle at which signal appears reflects the starting amount.

Another test addresses T2, FGFR1 (Homo sapiens, UniProt P11362).
T2 construct: made in house; host or cells: E. coli derived from BL21, infected with T7 phage
The test can be described thus: Kinase binding assay (kinase-tagged T7 phage, affinity beads, qPCR readout), FGFR1. Put shortly:
as §1

Another test addresses T3, FGFR2 (Homo sapiens, UniProt P21802).
T3 construct: made in house; host or cells: E. coli derived from BL21, infected with T7 phage
The test can be described thus: Kinase binding assay (kinase-tagged T7 phage, affinity beads, qPCR readout), FGFR2. The procedure, abridged:
as §1

Another test deals with T4, FGFR3 (V555M) (Homo sapiens, UniProt P22607, V555M).
T4 construct: made in house; host or cells: E. coli derived from BL21, infected with T7 phage
The test can be described thus: Kinase binding assay (kinase-tagged T7 phage, affinity beads, qPCR readout), FGFR3 (V555M). Put shortly:
as §1

T1 sequence (P22607 23-806): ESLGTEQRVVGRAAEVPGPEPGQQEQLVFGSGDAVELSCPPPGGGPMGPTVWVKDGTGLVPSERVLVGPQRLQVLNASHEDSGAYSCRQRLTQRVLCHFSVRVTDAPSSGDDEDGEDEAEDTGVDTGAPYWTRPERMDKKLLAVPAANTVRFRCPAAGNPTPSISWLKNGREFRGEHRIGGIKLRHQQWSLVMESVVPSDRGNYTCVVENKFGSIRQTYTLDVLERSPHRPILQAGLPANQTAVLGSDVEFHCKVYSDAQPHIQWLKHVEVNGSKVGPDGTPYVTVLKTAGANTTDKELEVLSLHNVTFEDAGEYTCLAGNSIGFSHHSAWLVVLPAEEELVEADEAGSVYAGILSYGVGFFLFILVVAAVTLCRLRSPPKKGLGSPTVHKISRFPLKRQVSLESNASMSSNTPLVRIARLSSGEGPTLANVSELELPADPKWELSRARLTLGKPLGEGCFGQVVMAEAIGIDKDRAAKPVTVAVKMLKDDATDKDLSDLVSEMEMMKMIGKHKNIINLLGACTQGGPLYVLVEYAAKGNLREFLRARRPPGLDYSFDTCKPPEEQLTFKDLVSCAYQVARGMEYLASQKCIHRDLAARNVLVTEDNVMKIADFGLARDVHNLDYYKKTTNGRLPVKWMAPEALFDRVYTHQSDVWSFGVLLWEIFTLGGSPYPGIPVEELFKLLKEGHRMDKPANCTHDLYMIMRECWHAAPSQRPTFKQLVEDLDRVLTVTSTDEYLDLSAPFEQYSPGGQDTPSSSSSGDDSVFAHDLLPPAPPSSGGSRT
T3 sequence (P21802 22-821): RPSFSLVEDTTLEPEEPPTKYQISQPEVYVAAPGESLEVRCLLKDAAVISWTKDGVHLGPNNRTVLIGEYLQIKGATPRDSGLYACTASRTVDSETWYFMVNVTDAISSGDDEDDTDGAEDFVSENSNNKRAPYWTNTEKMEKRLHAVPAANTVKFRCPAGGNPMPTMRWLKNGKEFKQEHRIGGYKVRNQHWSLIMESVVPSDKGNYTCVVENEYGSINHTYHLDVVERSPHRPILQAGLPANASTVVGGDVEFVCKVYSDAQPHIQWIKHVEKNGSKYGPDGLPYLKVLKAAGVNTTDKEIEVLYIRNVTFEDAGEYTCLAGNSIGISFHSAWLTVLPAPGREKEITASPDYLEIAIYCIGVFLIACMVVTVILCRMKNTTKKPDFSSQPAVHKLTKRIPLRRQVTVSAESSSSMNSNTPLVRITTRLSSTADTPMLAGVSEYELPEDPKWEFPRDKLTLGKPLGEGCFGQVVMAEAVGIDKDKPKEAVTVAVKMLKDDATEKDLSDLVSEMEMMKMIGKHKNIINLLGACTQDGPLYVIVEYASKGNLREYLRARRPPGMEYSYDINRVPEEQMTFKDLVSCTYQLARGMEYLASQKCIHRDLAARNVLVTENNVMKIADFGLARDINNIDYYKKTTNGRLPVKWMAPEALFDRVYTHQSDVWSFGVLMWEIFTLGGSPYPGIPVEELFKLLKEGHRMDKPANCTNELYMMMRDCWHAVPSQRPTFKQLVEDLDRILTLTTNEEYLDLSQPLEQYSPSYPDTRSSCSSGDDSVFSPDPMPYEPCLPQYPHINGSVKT
T4 sequence (P22607 23-806 V555M): as the sequence (P22607 23-806) above, with V533M counted along it
T2 sequence (P11362 22-822): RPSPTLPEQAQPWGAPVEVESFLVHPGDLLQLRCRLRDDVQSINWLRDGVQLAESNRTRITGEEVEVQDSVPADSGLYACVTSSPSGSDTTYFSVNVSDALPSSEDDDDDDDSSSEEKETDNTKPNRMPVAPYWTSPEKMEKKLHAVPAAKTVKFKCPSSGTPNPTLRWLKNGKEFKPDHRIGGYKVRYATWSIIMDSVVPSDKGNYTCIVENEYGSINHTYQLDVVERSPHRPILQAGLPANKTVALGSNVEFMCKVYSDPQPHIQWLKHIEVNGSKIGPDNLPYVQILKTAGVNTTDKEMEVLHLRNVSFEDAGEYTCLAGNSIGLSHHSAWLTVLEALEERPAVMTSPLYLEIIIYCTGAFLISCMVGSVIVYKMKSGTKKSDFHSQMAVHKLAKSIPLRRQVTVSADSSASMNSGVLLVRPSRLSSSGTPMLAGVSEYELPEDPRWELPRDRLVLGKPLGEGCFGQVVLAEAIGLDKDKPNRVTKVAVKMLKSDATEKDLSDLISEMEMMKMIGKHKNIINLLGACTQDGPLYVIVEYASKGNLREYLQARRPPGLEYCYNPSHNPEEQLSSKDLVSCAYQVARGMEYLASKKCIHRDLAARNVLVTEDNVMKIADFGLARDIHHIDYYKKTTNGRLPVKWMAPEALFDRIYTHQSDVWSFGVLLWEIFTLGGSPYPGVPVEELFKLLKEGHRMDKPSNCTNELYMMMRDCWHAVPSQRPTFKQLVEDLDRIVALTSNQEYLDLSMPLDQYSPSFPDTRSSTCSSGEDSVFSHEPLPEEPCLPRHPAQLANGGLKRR

As to `C=CC(=O)Nc1ccc2c(c1)c(C)cn2-c1nc(Nc2ccn(CC)n2)ncc1C` [Example 93, N-[1-[2-[(1-ethylpyrazol-3-yl)amino]-5-methyl-pyrimidin-4-yl]-3-methylindol-5-yl]prop-2-enamide], the Kd at FGFR3, on FGFR1, at FGFR2 and on FGFR3 (V555M) was 0.1 to 100 nM in each case.
Consider `C=CC(=O)Nc1ccc2c(c1)c(C)cn2-c1nc(Nc2cn(CCOC)nc2C)ncc1F` [Example 202, N-[1-[5-fluoro-2-[[1-(2-methoxyethyl)-3-methyl-pyrazol-4-yl]amino]pyrimidin-4-yl]-3-methyl-indol-5-yl]prop-2-enamide], for which the Kd at FGFR3, at FGFR1, on FGFR2 and at FGFR3 (V555M) was 0.1 to 100 nM in each case.
For `C=CC(=O)Nc1ccc2c(c1)c(C)cn2-c1nc(Nc2ccc3ncnn3c2)ncc1Cl` [Example 47, N-[1-[5-chloro-2-([1,2,4]triazolo[1,5-a]pyridin-6-ylamino)pyrimidin-4-yl]-3-methyl-indol-5-yl]prop-2-enamide], the Kd (in general, a measure of binding affinity in units of concentration) lay within 0.1 to 100 nM at FGFR3, 100 to 250 nM at FGFR1, 0.1 to 100 nM at FGFR2 and 0.1 to 100 nM at FGFR3 (V555M).
Turning to `C=CC(=O)Nc1ccc2c(c1)c(C)cn2-c1nc(Nc2cn(C)nc2C)nnc1Cl` [Example 225, N-[1-[6-chloro-3-[(1,3-dimethylpyrazol-4-yl)amino]-1,2,4-triazin-5-yl]-3-methyl-indol-5-yl]prop-2-enamide], the equilibrium dissociation constant (Kd) at FGFR3 is 250 to 1000 nM; at FGFR1, above 1000 nM; at FGFR2, above 1000 nM; on FGFR3 (V555M), 250 to 1000 nM.
As for `C#CC(=O)Nc1cnc2c(c1)c(C)cn2-c1nc(Nc2cnn(CCO)c2)ncc1F` [Example 133, N-[1-[5-fluoro-2-[[1-(2-hydroxyethyl)pyrazol-4-yl]amino]pyrimidin-4-yl]-3-methyl-pyrrolo[2,3-b]pyridin-5-yl]prop-2-ynamide], the dissociation constant (Kd) at FGFR3, on FGFR1, at FGFR2 and on FGFR3 (V555M) was 0.1 to 100 nM throughout.
For `C=CC(=O)Nc1ccc2c(c1)c(C)cn2-c1ccnc(Nc2ccnn2C)n1` [Example 82, N-[3-methyl-1-[2-[(2-methylpyrazol-3-yl)amino]pyrimidin-4-yl]indol-5-yl]prop-2-enamide], the Kd on FGFR3 is 0.1 to 100 nM; on FGFR1 it was 100 to 250 nM; at FGFR2, 0.1 to 100 nM; at FGFR3 (V555M), 0.1 to 100 nM.
Turning to `CCn1ccc(Nc2ncc(C)c(-n3cc(C)c4cc(NC(=O)/C=C/CN(C)C)cnc43)n2)n1` [Example 115, (E)-4-(dimethylamino)-N-[1-[2-[(1-ethylpyrazol-3-yl)amino]-5-methyl-pyrimidin-4-yl]-3-methyl-pyrrolo[2,3-b]pyridin-5-yl]but-2-enamide], the equilibrium dissociation constant (Kd) on FGFR3 was in the range of 0.1 to 100 nM; on FGFR1, 100 to 250 nM; on FGFR2, 100 to 250 nM; on FGFR3 (V555M) it was 0.1 to 100 nM.
On to `C=CC(=O)Nc1ccc2c(c1)c(C)cn2-c1nc(Nc2cnn(C[C@@H](C)OC)c2)ncc1F` [Example 210, N-[1-[5-fluoro-2-[[1-[(2R)-2-methoxypropyl]pyrazol-4-yl]amino]pyrimidin-4-yl]-3-methyl-indol-5-yl]prop-2-enamide], for which the Kd at FGFR3, at FGFR1, on FGFR2 and on FGFR3 (V555M) was 0.1 to 100 nM throughout.
For `C#CC(=O)Nc1cnc2c(c1)c(C)cn2-c1nc(Nc2cnn(CCO)c2)ncc1C` [Example 141, N-[1-[2-[[1-(2-hydroxyethyl)pyrazol-4-yl]amino]-5-methyl-pyrimidin-4-yl]-3-methyl-pyrrolo[2,3-b]pyridin-5-yl]prop-2-ynamide], the dissociation constant Kd at FGFR3, on FGFR1, on FGFR2 and at FGFR3 (V555M) was 0.1 to 100 nM each time.

Source of the values: US20240190849A1, “AMINOPYRIMIDINE COMPOUNDS AND METHODS OF THEIR USE” (TYRA BIOSCIENCES, INC., priority 2021, published 2024).
